From patent US20050159478A1, “Compositions containing d-tocopherol compound polybasic acid partial esters” (priority 2003, published 2005)
Where “and” joins values, the source holds several entries; their conditions need not be identical. Equal entries are not always repeated.

Legend:
[1] = Oscillatory rheology, softening point at tan(δ) = 1; assay type: physicochemical; details: for Rheology (oscillatory) @ Tan(δ) = 1 Temperature (softening point): heating rate 5° C./min, oscillation stress 1.0 Pa, 1.0 Hz
Procedure: Rheology measurements are conducted with TA Instruments Rheolyst AR-1000N rheometer. Experiments are conducted with the parallel plate geometry in a nitrogen atmosphere. The experiments use an oscillation stress of 1.0 Pa at a frequency of 1.0 Hz. The temperature range of the experiments is 40 to 210° C. at a heating rate of 5.0° C./min. Per analogy to rigid sphere or polymers, for TCS samples below the melting point, change in the pseudo G′ and G″ moduli″ is used as an indication of the softening of the sample. The cross-over point corresponds to the point where the ratio of the […] or tan (δ) is equal to one. The temperature at which tan (δ) is equal to one is considered as the softening point for the solid TCS samples. In addition, the second derivative of the loss modulus vs temperature was calculated. A maximum or minimum in the second derivative indicates a curvature or inflexion in the G″ vs T. This can also be taken as indicator of a change in the state of the samples (softening or melting depending on the temperature).
Softening points of these tocopherol succinate samples were identified using oscillatory rheology measurements. The temperature at which tan(δ) is equal to one, i.e., cross-over point (or the point where the samples are less rigid) is considered as their softening point. We call the moduli “pseudo loss and storage moduli”, since below the melting point, the powder cannot in reality be viscoelastic.

[2] = Differential Scanning Calorimetry of tocopherol calcium succinate samples; assay type: physicochemical; details: heating rate 5° C./min; several thermal transitions per sample
Procedure: DSC measurements are conducted with a Perkin Elmer Pyris 1 Differential Scanning Calorimeter. Experiments are conducted between 40° C. and 250° C. at heating/cooling rates of 5.0 and 10.0° C./min. During the experiments, the samples are enclosed in an air tight aluminum pan. The aluminum pan is in a nitrogen purge at 30 psi.

Rheology (oscillatory) @ Tan(δ) = 1 Temperature (softening point) [1]	DSC Enthalpy [2] [J/g]	DSC Onset [2] [°C]	SMILES	softening point in comparison to synthetic dl-tocopherol calcium succinate ([1]; compared with dl-tocopherol calcium succinate)
147 °C	–	–	Cc1c(C)c2c(c(C)c1OC(=O)CCC(=O)[O-])CC[C@@](C)(CCC[C@H](C)CCC[C@H](C)CCCC(C)C)O2.Cc1c(C)c2c(c(C)c1OC(=O)CCC(=O)[O-])CC[C@@](C)(CCC[C@H](C)CCC[C@H](C)CCCC(C)C)O2.[Ca+2] (racemic) [dl-tocopherol calcium succinate, reference compound]	–
151 °C and 153 °C	–	–	Cc1c(C)c2c(c(C)c1OC(=O)CCC(=O)[O-])CC[C@@](C)(CCC[C@H](C)CCC[C@H](C)CCCC(C)C)O2.Cc1c(C)c2c(c(C)c1OC(=O)CCC(=O)[O-])CC[C@@](C)(CCC[C@H](C)CCC[C@H](C)CCCC(C)C)O2.[Ca+2] [d-α-tocopherol calcium succinate]	significantly improved, i.e., increased, softening point
74 °C	80.00	74.5	Cc1c(C)c2c(c(C)c1OC(=O)CCC(=O)O)CC[C@@](C)(CCC[C@H](C)CCC[C@H](C)CCCC(C)C)O2 [d-α-tocopherol succinic acid]	–
